Data reported in patent publication US20100183714A1, “GASTRORESISTANT PHARMACEUTICAL DOSAGE FORM COMPRISING N-(2-(2- PHTHALIMIDOETHOXY)-ACETYL)-L-ALANYL-D-GLUTAMIC ACID (LK-423)” (priority 2004, published 2010).

Tested on: ulcerative changes of the ileum, caecum and colon
Assay: Antiulcerative action in vivo, DSS-induced ulcerative changes in rats
Details: 75 mg/kg orally
Source text: Ulcerative changes of ileum, caecum and colon in rats were developed in five days by drinking water containing 2% of sodium dextran sulphate (DSS).
DSS is the compound which after oral administration in an aqueous solution induces inflammatory and ulcerative changes in the mucosa of ileum, caecum and colon in animals.
The animals were randomly assigned to the individual groups.
From experiment day 6 onward the animals were drinking water with 1% DSS. The animals in Group A received the pure compound LK 423 in a dose of 75 mg/kg. The pure compound LK 423 was prepared as suspension in 1% gelatin (Gelatin GE0020, Scharlau) and was given orally via the tube in a volume of 1 ml.
In Group B the animals received the microcapsules comprising LK 423 in a dose of 75 mg/kg (as prepared in Example 1). The microcapsules comprising LK 423 were given orally via the tube dispersed in 1.5 to 2 ml 1% of gelatin.
At baseline the rats had body weight from 220 to 250 g. […] At baseline and on days 6 and 12 the body weight was recorded. For determination of the hematology parameters 1.5 ml blood samples were taken from the periorbital sinus at baseline and on day 5 of the experiment and from the abdominal aorta on day 12. The erythrocyte count and hemoglobin and hematocrit values were performed in the clinical laboratory of the Institute for Health Protection of Ruminants, Faculty of Veterinary Science. […] Throughout the experiment survival of the animals, diarrhea and occurrence of blood in the feces or the intensity of bleeding were also observed. On day 12 the animals were sacrificed under deep ether anesthesia and post-mortem examination was performed. Macroscopic changes in the ileum, caecum and in the colon and the intensity of bleeding were observed.
At autopsy fragments of the intestine were taken from the animals and fixed in 10% formaldehyde; paraffin tissue sections were prepared and stained with hematoxylin and eosin. Pathohistological diagnosis was then performed.
In all groups (both control groups, group A and group B) (Table 3) the tissue damage and a reaction of the surrounding tissue to the damage (level of regeneration) as well as accompanying parameters of the scope of bleeding in the mucosa, hypertrophy of the mucosa with glandular hyperplasia and the degree of epithelialization of the damage surface were assessed. The criteria were as follows:
The Scope of Acute Bleeding with Respect to the Tissue and to the Diameter of the Field of View at 40-Fold Magnification (4 mm): • No bleeding—0 • Small bleeding in the propria and submucosa, with a diameter less than half of the field of view—1 • Moderate bleeding in the propria and submucosa, with a diameter to one half of the field of view—2 • Very extensive bleeding in the propria and submucosa with a diameter greater than half of the field of view—3 • Very extensive bleeding in the propria, submucosa, around the vessels in the tunica muscularis, tunica serosa, and in the supporting tissue—4 Regressive Process—Damage with a Defense Reaction of the Tissue: • No cellular response (no reaction) or the regressive process was no longer active—0 • Moderate cellular infiltration (monocytes, granulocytes, macrophage, histocytes) with karyorrhesis and pyknosis in the mucosa and the submucosa—1 • Severe diffuse cellular infiltration (monocytes, granulocytes, macrophage, histocytes) with karyorrhesis and pyknosis in the mucosa and the submucos—2 • Cellular infiltration (monocytes, granulocytes, macrophage, histocytes) in the demarcation line around the injury—3

## C[C@H](NC(=O)COCCN1C(=O)c2ccccc2C1=O)C(=O)N[C@H](CCC(=O)O)C(=O)O [LK 423, N-(2-(2-phthalimidoethoxy)-acetyl)-L-alanyl-D-glutamic acid]
  Blood in the feces: +
  Mortality: 33%
  Percent of bleeding animals, Caecum: 17
  Percent of bleeding animals, Colon: 17
  Percent of bleeding animals, Ileum: 17
Decrease from baseline
  Difference of hematology values from day 0 to 12, Erythrocytes: 1.25 × 10^12/l
  Difference of hematology values from day 0 to 12, Hematocrit: 6.74%
  Difference of hematology values from day 0 to 12, Hemoglobin: 17.2 g/l
Histological score
  Level of bleeding in the mucosa: 0.6
Histological score, day 12
  Cellular process in sacrificed animals, Epithelialization: 2.37
  Cellular process in sacrificed animals, Hypertrophy of the mucosa: 2.75
  Cellular process in sacrificed animals, Level of damage: 1.75
  Cellular process in sacrificed animals, Level of regeneration: 2.37
pathohistology
  regeneration of damages of the intestinal mucosa compared with both control groups: more rapid regeneration
